Here are results for 3 compounds from publication PMC11845477, “Exploring the principles behind antibiotics with limited resistance” (Nature Communications, 2025).

Bounds are passed on as bounds.

The test system of assay [1] is A. baumannii ATCC 17978 (SEN) and A. baumannii ATCC BAA-1605 (MDR). Put plainly: microbe, parasite or virus in culture. It counts as cell-based, Acinetobacter baumannii. The following applies: for MIC of ancestor: ancestor strain; for MIC: Acinetobacter baumannii, across three biological replicates. The protocol: (§1) This study focused on multiple bacterial strains, as follows. For the FoR and ALE experiments, 2 strains per species were chosen: E. coli ATCC 25922, K. pneumoniae ATCC 10031, A. baumannii ATCC 17978, and P. aeruginosa ATCC BAA-3107 as sensitive (SEN) strains, and E. coli NCTC13846, K. pneumoniae ATCC 700603, A. baumannii ATCC BAA-1605 and P. aeruginosa LESB58 as multi-drug resistant (MDR) strains. Functional metagenomic screens were performed with E. coli ATCC 25922 and K. pneumoniae ATCC 10031 strains. To determine the dose-kill properties of the different antibiotics, an E. coli strain (ATCC 25922) expressing a yellow fluorescent protein (pZS2R, YFP, CHL^R) and a red fluorescent protein (pZS2R, mCherry, CHL^R) was used.
(§2) Unless otherwise indicated, cation-adjusted Mueller-Hinton Broth 2 (MHB, Millipore) medium was used throughout the study, except for SCH79797 (SCH).
(§3) A robotic liquid handling system was used to automatically prepare a 11 to 16-step serial dilution in 384-well microtiter plates (Greiner). A final concentration of 5 × 10^5 bacterial cells per mL were inoculated into each well containing 60 µL MHB medium. Bacterial cultures were incubated at 37 °C with continuous shaking (Infors shaker, 900 rpm with 3 mm throw) for 18 hours (2 replicates from each). Cell growth was monitored by measuring the optical density (OD600 values, using Biotek Synergy microplate reader). MIC was defined as the antibiotic concentration of complete growth inhibition (i.e., OD600 < 0.05). Relative MIC was calculated as follows:1 relativeMIC=MICevolved/MICancestor

In assay [2] the test system is E. coli ATCC 25922 (SEN) and E. coli NCTC13846 (MDR). Put plainly: Frequency-of-resistance (FoR) assay, relative MIC of mutants. It counts as cell-based, Escherichia coli. The note with it: for Relative MIC: Escherichia coli ATCC 25922 (EC-SEN); for MIC: Escherichia coli, read-out: MIC of evolved line, Escherichia coli ATCC 25922 (EC-SEN). On the procedure: (§4) The susceptibility of antibiotics to resistance development was evaluated in two strains of each bacterial species: a multidrug-resistant strain and an antibiotic-sensitive strain of Escherichia coli, Klebsiella pneumoniae, Acinetobacter baumannii, and Pseudomonas aeruginosa. To explore first-step resistance, we previously used a standard protocol for spontaneous frequency-of-resistance analysis (FoR assay) at multiple concentrations of each antibiotic[10],[28],[31]–[33]. […] For all other combinations, approximately 10^10 bacterial cells were exposed to one of each antibiotic on agar plates for two days at concentrations where the given strain is susceptible. We examined resistance levels by contrasting the minimum inhibitory concentration (MICs) of the mutated strains to the original wild-type bacterial strain (i.e., relative MIC).
(§5) To estimate the frequency of spontaneous mutations that confer resistance in a microbial population, we conducted a frequency of resistance (FoR) assay following established protocols[10],[31]–[33]. […] Prior to plating, bacteria were grown overnight in MHB medium at 37 °C and 250 RPM, then centrifuged and washed in MHB. All experiments were performed in triplicate, and plates were incubated at 37 °C for 48 hours. Total colony-forming units (CFUs) were determined by plating appropriate dilutions onto antibiotic-free MHB agar. Resistance frequencies were calculated by dividing the number of resistant colonies by the initial viable cell count. From the plates with the highest antibiotic concentration, ten colonies were selected for MIC determination and whole-genome sequencing.
as §3, with “relativeMIC=MICevolved/MICancestor […]” for “relativeMIC=MICevolved/MICancestor”
(§6) Supplementary Figure 3. Resistance levels following the frequency of resistance assay across bacterial strains. The level of resistance was measured as the fold change in relative MIC between evolved and ancestral strains. Data are grouped by bacterial strain (A. baumannii (AB), E. coli (EC), K. pneumoniae (KP), and P. aeruginosa (PA)) and categorized as either multidrug-resistant (MDR) or sensitive (SEN). Each data point represents a laboratory evolved line, and boxplots show the median, first and third quartiles, with whiskers indicating the 5th and 95th percentiles. […]
(§7) analysis was performed using two-sided Dunn’s post-hoc test with Benjamini-Hochberg correction for multiple comparisons (**/ * indicates p < 0.01/ 0.05). For detailed information on antibiotic and bacterial species, see Supplementary Table 1. For mode of action groups, refer to Table 1. Source data are provided as a Source Data file.

For assay [3], the system named is P. aeruginosa ATCC BAA-3107 (SEN) and P. aeruginosa LESB58 (MDR). Put plainly: microbe, parasite or virus in culture. It counts as cell-based, Pseudomonas aeruginosa. The following applies: for MIC: Pseudomonas aeruginosa, across three biological replicates. The protocol: as §1, §2, §3
The subject of assay [4] is E. coli ATCC 25922 (SEN) and E. coli NCTC13846 (MDR). Put plainly: microbe, parasite or virus in culture. It counts as cell-based, Escherichia coli. The following applies: for MIC: Escherichia coli, across three biological replicates. On the procedure: as §1, §2, §3
Assay [5] relates to A. baumannii ATCC 17978 (SEN) and A. baumannii ATCC BAA-1605 (MDR). Description: Frequency-of-resistance (FoR) assay, relative MIC of mutants. The note with it: for Relative MIC: Acinetobacter baumannii ATCC 17978 (AB-SEN); for MIC: Acinetobacter baumannii, read-out: MIC of evolved line, Acinetobacter baumannii ATCC 17978 (AB-SEN). It is filed as cell-based, Acinetobacter baumannii. The protocol: as §4, §5
as §3, with “relativeMIC=MICevolved/MICancestor […]” for “relativeMIC=MICevolved/MICancestor”
as §6, §7

The test system of assay [6] is K. pneumoniae ATCC 10031 (SEN) and K. pneumoniae ATCC 700603 (MDR). Description: microbe, parasite or virus in culture. The note with it: for MIC: Klebsiella pneumoniae, across three biological replicates. It counts as cell-based, Klebsiella pneumoniae. On the procedure:
as §1, §2, §3

[7] abbreviates: Acinetobacter baumannii ATCC 17978 (AB-SEN).
Setting [8] is: Acinetobacter baumannii ATCC 17978 (AB-SEN), sheet fig 2a.
Setting [9] is: Acinetobacter baumannii ATCC BAA-1605 (AB-MDR).
Setting [10] is: Pseudomonas aeruginosa ATCC BAA 3107 (PA-SEN), ancestor strain.
[11] abbreviates: ATCCBAA3107, Pseudomonas aeruginosa ATCC BAA-3107 (PA-SEN).
Where [12] appears, read: ATCCBAA3107, Pseudomonas aeruginosa LESB 58 (PA-MDR).
Setting [13] is: Escherichia coli ATCC 25922 (EC-SEN), ancestor strain.
[14] abbreviates: Escherichia coli ATCC 25922 (EC-SEN), ancestor strain, sheet fig 2a.
The mark [15] stands for this setting: Escherichia coli ATCC 25922 (EC-SEN).
[16] abbreviates: Escherichia coli NCTC 13846 (EC-MDR).
Setting [17] is: Klebsiella pneumoniae ATCC 10031 (KP-SEN), ancestor strain.
Where [18] appears, read: Klebsiella pneumoniae ATCC 10031 (KP-SEN), ancestor strain, sheet fig 2a.
[19] abbreviates: Klebsiella pneumoniae ATCC 700603 (KP-MDR), ancestor strain, sheet fig 2a.
[20] abbreviates: Klebsiella pneumoniae ATCC 10031 (KP-SEN).
[21] abbreviates: Klebsiella pneumoniae ATCC 700603 (KP-MDR).
[22] abbreviates: P. aeruginosa ATCC BAA 3107 (PA-SEN), ancestor strain, sheet fig 2a.

With `Nc1nc(-n2cc(C(=O)O)c(=O)c3cc(F)c(N4CC(O)C4)c(Cl)c32)c(F)cc1F` [Delafloxacin], the MIC of ancestor in assay [1] (setting [7]) came to 0.0625 µg/mL; in assay [1] (setting [8]), 0.0625 µg/mL; in assay [3] (P. aeruginosa LESB 58 (PA-MDR), ancestor strain, sheet fig 2a), 2 µg/mL; in assay [3] (setting [10]), 0.0156 µg/mL; in assay [3] (Pseudomonas aeruginosa LESB 58 (PA-MDR), ancestor strain), 2 µg/mL; in assay [4] (setting [13]) it was 0.0312 µg/mL. The MIC of ancestor worked out at 0.0312 µg/mL in assay [4] (setting [14]); 0.00195 µg/mL in assay [6] (setting [17]); 0.00195 µg/mL in assay [6] (setting [18]); 1 µg/mL in assay [6] (Klebsiella pneumoniae ATCC 700603 (KP-MDR), ancestor strain); 1 µg/mL in assay [6] (setting [19]). In addition, the MIC is 0.0625 µg/mL in assay [1] (setting [7]); 8 µg/mL in assay [1] (setting [9]); < 0.0312 µg/mL in assay [3] (setting [11]); 2 µg/mL in assay [3] (setting [12]); 0.0312 µg/mL in assay [4] (setting [15]); 16 µg/mL in assay [4] (setting [16]). Besides, the MIC in assay [5] (evolved line 1) is 0.5 µg/mL; in assay [5] (evolved line 2), 0.25 µg/mL; in assay [5] (evolved line 3), 0.5 µg/mL; in assay [6] (setting [20]), 0.00195 µg/mL; in assay [6] (setting [21]) it was 1 µg/mL. Further, the “Relative MIC” value came out at 1 in assay [2] (evolved line 1 versus ancestor); 1 in assay [2] (evolved line 2 versus ancestor); 1 in assay [2] (evolved line 3 versus ancestor); 8 in assay [5] (evolved line 1 versus ancestor); 4 in assay [5] (evolved line 2 versus ancestor); 8 in assay [5] (evolved line 3 versus ancestor).
As for `C[C@H]1c2cccc(O)c2C(=O)C2=C(O)[C@]3(O)C(=O)C(C(N)=O)=C(O)[C@@H](N(C)C)[C@@H]3[C@@H](O)[C@@H]21` [Doxycycline], the MIC of ancestor worked out at 0.25 µg/mL in assay [1] (setting [7]); 0.25 µg/mL in assay [1] (setting [8]); 4 µg/mL in assay [3] (setting [22]); 4 µg/mL in assay [3] (setting [10]); 1 µg/mL in assay [4] (setting [13]); 1 µg/mL in assay [4] (setting [14]). Besides, the MIC of ancestor in assay [6] (setting [17]) and in assay [6] (setting [18]) was 0.25 µg/mL in each case. Also, the MIC in assay [1] (setting [7]) was 0.25 µg/mL; in assay [1] (setting [9]) it was 8 µg/mL; in assay [2] (evolved line 1) it was 2 µg/mL; in assay [2] (evolved line 2), 4 µg/mL; in assay [2] (evolved line 3) it was 2 µg/mL; in assay [3] (setting [11]), 4 µg/mL. For the same compound, the MIC in assay [3] (setting [12]) is 32 µg/mL; in assay [4] (setting [15]), 1 µg/mL; in assay [4] (setting [16]) it was 16 µg/mL; in assay [6] (setting [20]), 0.25 µg/mL; in assay [6] (setting [21]), 32 µg/mL. For the same compound, the “Relative MIC” value in assay [2] (evolved line 1 versus ancestor) was 2; in assay [2] (evolved line 2 versus ancestor), 4; in assay [2] (evolved line 3 versus ancestor) it was 2; in assay [5] (evolved line 1 versus ancestor), 1; in assay [5] (evolved line 2 versus ancestor), 1; in assay [5] (evolved line 3 versus ancestor) it was 1.
For the compound `COc1c(N2C[C@@H]3CCCN[C@@H]3C2)c(F)cc2c(=O)c(C(=O)O)cn(C3CC3)c12` [Moxifloxacin], the MIC in assay [1] (setting [9]) was 32 µg/mL; in assay [3] (setting [11]), 1 µg/mL; in assay [3] (setting [12]), 32 µg/mL; in assay [4] (setting [15]), 0.0312 µg/mL; in assay [4] (setting [16]), > 32 µg/mL; in assay [5] (evolved line 1), 0.5 µg/mL. In addition, the MIC worked out at 2 µg/mL in assay [5] (evolved line 2), 1 µg/mL in assay [5] (evolved line 3), 0.00781 µg/mL in assay [6] (setting [20]) and 1 µg/mL in assay [6] (setting [21]). Further, the MIC of ancestor in assay [3] (setting [22]) came out at 1 µg/mL; in assay [3] (Pseudomonas aeruginosa ATCC BAA 3107 (PA-SEN), ancestor), 1 µg/mL; in assay [4] (Escherichia coli ATCC 25922 (EC-SEN), ancestor) it was 0.0312 µg/mL; in assay [4] (setting [14]), 0.0312 µg/mL; in assay [6] (Klebsiella pneumoniae ATCC 10031 (KP-SEN), ancestor) it was 0.00781 µg/mL; in assay [6] (setting [18]), 0.00781 µg/mL. Further, the MIC of ancestor in assay [6] (Klebsiella pneumoniae ATCC 700603 (KP-MDR), ancestor) stood at 1 µg/mL; in assay [6] (setting [19]), 1 µg/mL.
